Measured values as given in the NIST ThermoML archive (doi:10.1016/j.fluid.2017.10.027).

Settings: Liquid; for mass density: Vibrating tube method; for speed of sound: Sing-around technique in a fixed-path interferometer

CCCCOCCO [2-butoxyethan-1-ol]
Settings | mass density, 100 kPa [kg/m3] | mass density, 101.33 kPa [kg/m3] | mass density, 2500 kPa [kg/m3] | mass density, 5000 kPa [kg/m3] | mass density, 10000 kPa [kg/m3] | mass density, 15000 kPa [kg/m3] | mass density, 20000 kPa [kg/m3] | mass density, 25000 kPa [kg/m3] | mass density, 30000 kPa [kg/m3] | speed of sound, 101.33 kPa [m/s]
293.15 K | 900 | – | 902 | 903 | 907 | 910 | 913 | 916 | 919 | –
298.15 K | – | 896.17 | – | – | – | – | – | – | – | 1304.7
303.15 K | 892 | – | 893 | 895 | 899 | 902 | 905 | 909 | 912 | –
313.15 K | 883 | – | 885 | 887 | 889 | 894 | 898 | 901 | 904 | –
323.15 K | 873 | – | 875 | 877 | 879 | 886 | 890 | 893 | 896 | –
333.15 K | 866 | – | 868 | 870 | 874 | 878 | 882 | 885 | 889 | –
343.15 K | 857 | – | 860 | 862 | 866 | 870 | 874 | 877 | 881 | –
353.15 K | 849 | – | 851 | 853 | 857 | 862 | 866 | 869 | 873 | –
363.15 K | 839 | – | 842 | 844 | 849 | 853 | 857 | 861 | 865 | –
373.15 K | 830 | – | 833 | 835 | 840 | 845 | 849 | 853 | 857 | –
383.15 K | 821 | – | 823 | 826 | 831 | 836 | 841 | 845 | 849 | –
393.15 K | 811 | – | 814 | 817 | 822 | 827 | 832 | 837 | 841 | –
403.15 K | 801 | – | 804 | 807 | 813 | 819 | 824 | 829 | 833 | –
413.15 K | 790 | – | 794 | 797 | 804 | 810 | 815 | 821 | 825 | –

CCOCCO [2-ethoxyethan-1-ol]
Settings | mass density, 100 kPa [kg/m3] | mass density, 101.33 kPa [kg/m3] | mass density, 2500 kPa [kg/m3] | mass density, 5000 kPa [kg/m3] | mass density, 10000 kPa [kg/m3] | mass density, 15000 kPa [kg/m3] | mass density, 20000 kPa [kg/m3] | mass density, 25000 kPa [kg/m3] | mass density, 30000 kPa [kg/m3] | speed of sound, 101.33 kPa [m/s]
293.15 K | 931 | – | 933 | 934 | 938 | 941 | 944 | 947 | 950 | –
298.15 K | – | 925.64 | – | – | – | – | – | – | – | 1305.7
303.15 K | 922 | – | 924 | 925 | 929 | 932 | 936 | 939 | 942 | –
313.15 K | 913 | – | 914 | 916 | 920 | 924 | 927 | 930 | 933 | –
323.15 K | 903 | – | 905 | 907 | 911 | 915 | 918 | 922 | 925 | –
333.15 K | 894 | – | 896 | 898 | 902 | 906 | 910 | 913 | 917 | –
343.15 K | 884 | – | 886 | 889 | 893 | 897 | 901 | 905 | 908 | –
353.15 K | 874 | – | 877 | 879 | 884 | 888 | 892 | 896 | 900 | –
363.15 K | 864 | – | 867 | 869 | 874 | 879 | 883 | 887 | 891 | –
373.15 K | 854 | – | 857 | 859 | 865 | 869 | 874 | 878 | 882 | –
383.15 K | 843 | – | 846 | 849 | 855 | 860 | 865 | 869 | 874 | –
393.15 K | 832 | – | 836 | 839 | 845 | 850 | 855 | 860 | 865 | –

CCCOCCO [2-propoxyethanol]
Settings | mass density, 100 kPa [kg/m3] | mass density, 101.33 kPa [kg/m3] | mass density, 2500 kPa [kg/m3] | mass density, 5000 kPa [kg/m3] | mass density, 10000 kPa [kg/m3] | mass density, 15000 kPa [kg/m3] | mass density, 20000 kPa [kg/m3] | mass density, 25000 kPa [kg/m3] | mass density, 30000 kPa [kg/m3] | speed of sound, 101.33 kPa [m/s]
293.15 K | 911 | – | 913 | 915 | 918 | 922 | 925 | 928 | 931 | –
298.15 K | – | 907.23 | – | – | – | – | – | – | – | 1298.8
303.15 K | 903 | – | 904 | 906 | 910 | 913 | 917 | 920 | 923 | –
313.15 K | 894 | – | 896 | 898 | 901 | 905 | 908 | 912 | 915 | –
323.15 K | 885 | – | 887 | 889 | 893 | 897 | 900 | 904 | 907 | –
333.15 K | 876 | – | 878 | 880 | 884 | 888 | 892 | 895 | 899 | –
343.15 K | 867 | – | 869 | 871 | 875 | 879 | 883 | 887 | 891 | –
353.15 K | 857 | – | 860 | 862 | 866 | 871 | 875 | 879 | 882 | –
363.15 K | 848 | – | 850 | 853 | 857 | 862 | 866 | 870 | 874 | –
373.15 K | 838 | – | 840 | 843 | 848 | 853 | 858 | 862 | 866 | –
383.15 K | 828 | – | 830 | 833 | 839 | 844 | 849 | 853 | 858 | –
393.15 K | 817 | – | 820 | 823 | 829 | 835 | 840 | 845 | 849 | –
403.15 K | 806 | – | 810 | 813 | 819 | 825 | 831 | 836 | 841 | –
413.15 K | 795 | – | 799 | 803 | 810 | 816 | 822 | 827 | 832 | –
